In patent US20180298010A1, “PRMT5 INHIBITORS AND USES THEREOF” (Epizyme, Inc., priority 2012, published 2018):

Target: T1, PRMT5/MEP50 (Homo sapiens, UniProt O14744)
T1 construct: Flag-PRMT5; 6His-MEP50
Test: PRMT5 Biochemical Assay (PRMT5/MEP50 enzyme assay on peptide substrate, 3H-SAM Flashplate)
Text: General Materials. S-adenosylmethionine (SAM), S-adenosylhomocysteine (SAH), bicine, KCl, Tween20, dimethylsulfoxide (DMSO), bovine skin gelatin (BSG), and Tris(2-carboxyethyl)phosphine hydrochloride solution (TCEP) were purchased from Sigma-Aldrich at the highest level of purity possible. ^3H-SAM was purchase from American Radiolabeled Chemicals with a specific activity of 80 Ci/mmol. 384-well streptavidin Flashplates were purchased from PerkinElmer.
Substrates. Peptide representative of human histone H4 residues 1-15 was synthesized with a C-terminal linker-affinity tag motif and a C-terminal amide cap by 21st Century Biochemicals. The peptide was high high-perfomance liquid chromatography (HPLC) purified to greater than 95% purity and confirmed by liquid chromatography mass spectrometry (LC-MS). The sequence was Ac-[…][K-Biot]-amide (SEQ ID NO.:3).
Molecular Biology: Full-length human PRMT5 (NM_006109.3) transcript variant 1 clone was amplified from a fetal brain cDNA library, incorporating flanking 5′ sequence encoding a FLAG tag ([…]) (SEQ ID NO.:4) fused directly to Ala 2 of PRMT5. Full-length human MEP50 (NM_024102) clone was amplified from a human testis cDNA library incorporating a 5′ sequence encoding a 6-histidine tag (MHHHHHH) (SEQ ID NO.:5) fused directly to Arg 2 of MEP50. The amplified genes were sublconed into pENTR/D/TEV (Life Technologies) and subsequently transferred by Gateway™ attL×attR recombination to pDEST8 baculvirus expression vector (Life Technologies).
Protein Expression. Recombinant baculovirus and Baculovirus-Infected Insect Cells (BIIC) were generated according to Bac-to-Bac kit instructions (Life Technologies) and Wasilko, 2006, respectively. Protein over-expression was accomplished by infecting exponentially growing Spodoptera frugiperda (SF9) cell culture at 1.2×10^6cell/ml with a 5000 fold dilution of BIIC stock. Infections were carried out at 27° C. for 72 hours, harvested by centrifugation, and stored at −80° C. for purification.
Protein Purification. […] Flag-PRMT5/6His-MeP50 was eluted with 300 mM Imidazole in the same buffer. The purity of recovered protein was 87%. Reference: Wasilko, D. J. and S. E. Lee: “TIPS: titerless infected-cells preservation and scale-up” Bioprocess J., 5 (2006), pp. 29-32.
General Procedure for PRMT5/MEP50 Enzyme Assays on Peptide Substrates. The assays were all performed in a buffer consisting of 20 mM Bicine (pH=7.6), 1 mM TCEP, 0.005% BSG, and 0.002% Tween20, prepared on the day of use. Compounds in 100% DMSO (1 ul) were spotted into a polypropylene 384-well V-bottom plates (Greiner) using a Platemate Plus outfitted with a 384-channel head (Thermo Scientific). DMSO (1 ul) was added to Columns 11, 12, 23, 24, rows A-H for the maximum signal control and 1 ul of SAH, a known product and inhibitor of PRMT5/MEP50, was added to columns 11, 12, 23, 24, rows I-P for the minimum signal control. A cocktail (40 ul) containing the PRMT5/MEP50 enzyme and the peptide was added by Multidrop Combi (Thermo-Fisher). The compounds were allowed to incubate with PRMT5/MEP50 for 30 min at 25 degrees Celsius, then a cocktail (10 ul) containing ^3H-SAM was added to initiate the reaction (final volume=51 ul). The final concentrations of the components were as follows: PRMT5/MEP50 was 4 nM, ^3H-SAM was 75 nM, peptide was 40 nM, SAH in the minimum signal control wells was 100 uM, and the DMSO concentration was […]. The assays were stopped by the addition of non-radioactive SAM (10 ul) to a final concentration of 600 uM, which dilutes the ^3H-SAM to a level where its incorporation into the peptide substrate is no longer detectable. 50 ul of the reaction in the 384-well polypropylene plate was then transferred to a 384-well Flashplate and the biotinylated peptides were allowed to bind to the streptavidin surface for at least 1 hour before being washed three times with 0.1% Tween20 in a Biotek ELx405 plate washer. […]

T1 sequence (O14744 with tags, fused parts or gaps): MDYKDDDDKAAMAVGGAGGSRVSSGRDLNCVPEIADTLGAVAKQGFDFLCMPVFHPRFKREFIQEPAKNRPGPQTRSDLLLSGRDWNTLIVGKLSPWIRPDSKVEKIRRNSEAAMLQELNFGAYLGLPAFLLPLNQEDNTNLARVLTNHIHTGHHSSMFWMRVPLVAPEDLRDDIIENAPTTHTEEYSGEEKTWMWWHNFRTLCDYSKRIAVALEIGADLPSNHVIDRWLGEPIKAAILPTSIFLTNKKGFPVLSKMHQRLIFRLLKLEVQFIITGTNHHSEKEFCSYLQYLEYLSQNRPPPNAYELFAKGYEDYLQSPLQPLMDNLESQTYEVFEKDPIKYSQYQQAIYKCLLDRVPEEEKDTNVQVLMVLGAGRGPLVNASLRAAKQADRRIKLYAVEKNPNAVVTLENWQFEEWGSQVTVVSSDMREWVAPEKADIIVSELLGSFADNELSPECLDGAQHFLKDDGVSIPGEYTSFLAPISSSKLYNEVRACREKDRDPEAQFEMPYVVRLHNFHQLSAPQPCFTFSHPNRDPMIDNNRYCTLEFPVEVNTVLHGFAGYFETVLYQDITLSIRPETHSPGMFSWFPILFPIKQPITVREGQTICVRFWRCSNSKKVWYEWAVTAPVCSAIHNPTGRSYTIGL
T1 sequence (Q9BQA1 with tags, fused parts or gaps partner): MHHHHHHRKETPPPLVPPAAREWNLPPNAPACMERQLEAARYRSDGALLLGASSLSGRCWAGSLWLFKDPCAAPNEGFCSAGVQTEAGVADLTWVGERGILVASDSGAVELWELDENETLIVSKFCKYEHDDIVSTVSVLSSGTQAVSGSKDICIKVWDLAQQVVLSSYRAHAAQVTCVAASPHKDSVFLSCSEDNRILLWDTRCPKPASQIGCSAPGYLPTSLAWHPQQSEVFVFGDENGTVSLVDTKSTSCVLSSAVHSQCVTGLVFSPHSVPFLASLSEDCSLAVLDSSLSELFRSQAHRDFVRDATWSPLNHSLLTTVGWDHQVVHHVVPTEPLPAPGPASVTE

Compound | IC50
COc1ccc(-c2cccc(OCC(O)CN3CCc4ccccc4C3)c2)cc1 (stereo not drawn) [Compound 75, 1-(3,4-dihydroisoquinolin-2(1H)-yl)-3-((4′-methoxy-[1,1′-biphenyl]-3-yl)oxy)propan-2-ol] | 101 to 1000 nM
OC(COc1cccc(-c2cncc(F)c2)c1)CN1CCc2ccccc2C1 (stereo not drawn) [Compound 76] | 1000 to 10000 nM
Cc1ccc(-c2cccc(OCC(O)CN3CCc4ccccc4C3)c2)cn1 (stereo not drawn) [Compound 78] | 1000 to 10000 nM
OC(COc1cccc(-c2ccc3nc[nH]c3c2)c1)CN1CCc2ccccc2C1 (stereo not drawn) [Compound 83] | 101 to 1000 nM
OC(COc1cccc(-c2cccc(C(F)(F)F)c2)c1)CN1CCc2ccccc2C1 (stereo not drawn) [Compound 87] | 1000 to 10000 nM
OC(COc1cccc(-c2cnc3ccccc3c2)c1)CN1CCc2ccccc2C1 (stereo not drawn) [Compound 89, 1-(3,4-dihydroisoquinolin-2(1H)-yl)-3-(3-(quinolin-3-yl)phenoxy)propan-2-ol] | 101 to 1000 nM
COc1ccc(-c2cccc(OCC(O)CN3CCc4ccccc4C3)c2)c(C)c1 (stereo not drawn) [Compound 90] | 101 to 1000 nM
OC(COc1cccc(-c2cccc(Cl)c2)c1)CN1CCc2ccccc2C1 (stereo not drawn) [Compound 91] | 1000 to 10000 nM
N#Cc1ccccc1-c1cccc(OCC(O)CN2CCc3ccccc3C2)c1 (stereo not drawn) [Compound 93] | 101 to 1000 nM
N#Cc1ccc(-c2cccc(OCC(O)CN3CCc4ccccc4C3)c2)cc1 (stereo not drawn) [Compound 94] | 101 to 1000 nM
Oc1cccc(-c2cccc(OCC(O)CN3CCc4ccccc4C3)c2)c1 (stereo not drawn) [Compound 95] | 101 to 1000 nM
Oc1ccc(-c2cccc(OCC(O)CN3CCc4ccccc4C3)c2)cc1 (stereo not drawn) [Compound 96] | 1000 to 10000 nM
CN(CC(O)CN1CCc2ccccc2C1)c1cccc(C(=O)NC2CCOCC2)c1 (stereo not drawn) [Compound 99] | 10000 to 40000 nM
COc1cccc2c1CN(CC(O)COc1cccc(-c3ccc4ncn(C)c4c3)c1)CC2 (stereo not drawn) [Compound 100] | 1000 to 10000 nM
OC(COc1cccc(-c2ccc3ncn(-c4ccccc4)c3c2)c1)CN1CCc2ccccc2C1 (stereo not drawn) [Compound 104, 1-(3,4-dihydroisoquinolin-2(1H)-yl)-3-(3-(1-phenyl-1H-benzo[d]imidazol-6-yl)phenoxy)propan-2-ol] | 101 to 1000 nM
O=c1[nH]c2ccc(-c3cccc(OCC(O)CN4CCc5ccccc5C4)c3)cc2[nH]1 (stereo not drawn) [Compound 109, 5-(3-(3-(3,4-dihydroisoquinolin-2(1H)-yl)-2-hydroxypropoxy)phenyl)-1H-benzo[d]imidazol-2(3H)-one] | 101 to 1000 nM
COc1cc(Cl)cc(-c2cccc(OCC(O)CN3CCc4ccccc4C3)c2)c1 (stereo not drawn) [Compound 110] | 101 to 1000 nM
Cn1cc2ccc(-c3cccc(OCC(O)CN4CCc5ccccc5C4)c3)cc2n1 (stereo not drawn) [Compound 114] | 101 to 1000 nM
Cn1cnc2ccc(-c3cccc(NCC(O)CN4CCc5ccccc5C4)n3)cc21 (stereo not drawn) [Compound 117, 1-(3,4-Dihydroisoquinolin-2(1H)-yl)-3-((6-(1-methyl-1H-benzo[d]imidazol-6-yl)pyridin-2-yl)amino)propan-2-ol] | 101 to 1000 nM
Cn1cnc2ccc(-c3ccnc(NCC(O)CN4CCc5ccccc5C4)n3)cc21 (stereo not drawn) [Compound 119] | 101 to 1000 nM
Cn1cnc2ccc(-c3cncc(NCC(O)CN4CCc5ccccc5C4)n3)cc21 (stereo not drawn) [Compound 121, 1-(3,4-dihydroisoquinolin-2(1H)-yl)-3-((6-(1-methyl-1H-benzo[d]imidazol-6-yl)pyrazin-2-yl)amino)propan-2-ol] | 101 to 1000 nM
O=C(c1cccc(-c2cccc(OCC(O)CN3CCc4ccccc4C3)c2)c1)N1CCOCC1 (stereo not drawn) [Compound 126, (3′-(3-(3,4-dihydroisoquinolin-2(1H)-yl)-2-hydroxypropoxy)-[1,1′-biphenyl]-3-yl)(morpholino)methanone] | 101 to 1000 nM

The remaining lines, values ahead:

IC50 | Compound
101 to 1000 nM | COc1cccc(-c2cccc(OCC(O)CN3CCc4ccccc4C3)c2)c1 (stereo not drawn) [Compound 74]
1000 to 10000 nM | OC(COc1cccc(-c2ccc(F)cc2)c1)CN1CCc2ccccc2C1 (stereo not drawn) [Compound 77]
10000 to 40000 nM | O=C(NC1CCOCC1)c1cccc(NCC(O)CN2CCc3ccccc3C2)c1 (stereo not drawn) [Compound 79]
101 to 1000 nM | CC1c2ccccc2CCN1CC(O)COc1cccc(-c2ccc3ncn(C)c3c2)c1 (stereo not drawn) [Compound 80]
101 to 1000 nM | CC(C)n1cnc2ccc(-c3cccc(OCC(O)CN4CCc5ccccc5C4)c3)cc21 (stereo not drawn) [Compound 81]
101 to 1000 nM | COc1ccc(Cn2cnc3ccc(-c4cccc(OCC(O)CN5CCc6ccccc6C5)c4)cc32)cc1 (stereo not drawn) [Compound 82, 1-(3,4-dihydroisoquinolin-2(1H)-yl)-3-(3-(1-(4-methoxybenzyl)-1H-benzo[d]imidazol-6-yl)phenoxy)propan-2-ol]
101 to 1000 nM | OC(COc1cccc(-c2ccc3c(c2)OCCO3)c1)CN1CCc2ccccc2C1 (stereo not drawn) [Compound 85, 1-(3-(2,3-dihydrobenzo[b][1,4]dioxin-6-yl)phenoxy)-3-(3,4-dihydroisoquinolin-2(1H)-yl)propan-2-ol]
101 to 1000 nM | OC(COc1cccc(-c2cccc3c2oc2ccccc23)c1)CN1CCc2ccccc2C1 (stereo not drawn) [Compound 86, 1-(3-(dibenzo[b,d]furan-4-yl)phenoxy)-3-(3,4-dihydroisoquinolin-2(1H)-yl)propan-2-ol]
101 to 1000 nM | COc1ccc(-c2cccc(OCC(O)CN3CCc4ccccc4C3)c2)c(Cl)c1 (stereo not drawn) [Compound 88]
101 to 1000 nM | OC(COc1cccc(-c2ccccc2Cl)c1)CN1CCc2ccccc2C1 (stereo not drawn) [Compound 92]
1000 to 10000 nM | OC(COc1cccc(-c2ccncc2)c1)CN1CCc2ccccc2C1 (stereo not drawn) [Compound 97]
1000 to 10000 nM | OC(COc1cccc(-c2ccccn2)c1)CN1CCc2ccccc2C1 (stereo not drawn) [Compound 98]
1000 to 10000 nM | CC1CN(CC(O)COc2cccc(-c3ccc4ncn(C)c4c3)c2)Cc2ccccc21 (stereo not drawn) [Compound 101]
101 to 1000 nM | OC(COc1cccc(-c2ccc3ncn(C4CCOCC4)c3c2)c1)CN1CCc2ccccc2C1 (stereo not drawn) [Compound 103, 1-(3,4-dihydroisoquinolin-2(1H)-yl)-3-(3-(1-(tetrahydro-2H-pyran-4-yl)-1H-benzo[d]imidazol-6-yl)phenoxy)propan-2-ol]
101 to 1000 nM | OC(COc1cccc(-c2ccc3[nH]ncc3c2)c1)CN1CCc2ccccc2C1 (stereo not drawn) [Compound 107]
101 to 1000 nM | N#CCc1cccc(-c2cccc(OCC(O)CN3CCc4ccccc4C3)c2)c1 (stereo not drawn) [Compound 111]
101 to 1000 nM | Cc1ccncc1-c1cccc(OCC(O)CN2CCc3ccccc3C2)c1 (stereo not drawn) [Compound 113, 1-(3,4-dihydroisoquinolin-2(1H)-yl)-3-(3-(4-methylpyridin-3-yl)phenoxy)propan-2-ol]
1000 to 10000 nM | Cn1cc2cc(-c3cccc(OCC(O)CN4CCc5ccccc5C4)c3)ccc2n1 (stereo not drawn) [Compound 115]
1000 to 10000 nM | Cn1cnc2ccc(-c3nccc(NCC(O)CN4CCc5ccccc5C4)n3)cc21 (stereo not drawn) [Compound 120, 1-(3,4-dihydroisoquinolin-2(1H)-yl)-3-((2-(1-methyl-1H-benzo[d]imidazol-6-yl)pyrimidin-4-yl)amino)propan-2-ol]
1000 to 10000 nM | CC1Cc2ccccc2CN1CC(O)COc1cccc(-c2ccc3ncn(C)c3c2)c1 (stereo not drawn) [Compound 122]
101 to 1000 nM | OC(COc1cccc(-c2ccc(C(F)(F)F)cc2C(F)(F)F)c1)CN1CCc2ccccc2C1 (stereo not drawn) [Compound 124]
101 to 1000 nM | CN(C)c1ncc(-c2cccc(OCC(O)CN3CCc4ccccc4C3)c2)cn1 (stereo not drawn) [Compound 125, 1-(3,4-dihydroisoquinolin-2(1H)-yl)-3-(3-(2-(dimethylamino)pyrimidin-5-yl)phenoxy)propan-2-ol]
101 to 1000 nM | OC(COc1cccc(-c2ccc(C(F)(F)F)cc2Cl)c1)CN1CCc2ccccc2C1 (stereo not drawn) [Compound 127]
